Consider two molecules from ChEMBL document CHEMBL1152764, “Penicilliols A and B, novel inhibitors specific to mammalian Y-family DNA polymerases” (Bioorg Med Chem, 2009).

The target in the experiment is T1, DNA polymerase iota (Mus musculus, UniProt Q6R3M4).
T1 sequence (Q6R3M4 whole entry): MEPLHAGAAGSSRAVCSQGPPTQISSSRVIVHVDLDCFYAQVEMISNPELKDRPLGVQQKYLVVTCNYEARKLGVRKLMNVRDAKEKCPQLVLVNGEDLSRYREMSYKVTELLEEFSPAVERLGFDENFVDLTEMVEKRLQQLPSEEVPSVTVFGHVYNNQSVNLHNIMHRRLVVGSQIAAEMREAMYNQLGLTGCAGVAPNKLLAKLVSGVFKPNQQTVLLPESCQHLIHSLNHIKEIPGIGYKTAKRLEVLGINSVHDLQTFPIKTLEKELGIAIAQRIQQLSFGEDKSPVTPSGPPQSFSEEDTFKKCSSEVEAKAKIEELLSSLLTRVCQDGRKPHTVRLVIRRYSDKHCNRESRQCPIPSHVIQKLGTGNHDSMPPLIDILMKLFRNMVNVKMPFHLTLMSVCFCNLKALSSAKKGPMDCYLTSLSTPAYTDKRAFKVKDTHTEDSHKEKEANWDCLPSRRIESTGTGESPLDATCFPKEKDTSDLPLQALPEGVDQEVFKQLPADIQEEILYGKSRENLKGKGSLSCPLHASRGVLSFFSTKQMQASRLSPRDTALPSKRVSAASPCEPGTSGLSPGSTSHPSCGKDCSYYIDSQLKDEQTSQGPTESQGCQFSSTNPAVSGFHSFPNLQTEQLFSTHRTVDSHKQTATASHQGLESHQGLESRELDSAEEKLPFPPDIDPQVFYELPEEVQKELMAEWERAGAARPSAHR
Description: Inhibition of mouse DNA polymerase iota.

Consider `C/C=C/C(=O)C1=C(OC)OC(C)(/C=C/C=C/C(C)O)C1=O` (configuration not stated) [PENICILLIOL A], for which the IC50 (as a rule, the midpoint of a concentration-inhibition curve) was determined as 19.8 µM. The figure for `COC1=C(C(=O)CC(C)O)C(=O)C(C)(/C=C/C=C/C(C)O)O1` (configuration not stated) [PENICILLIOL B] is 32.5 µM.
